The numbers were not newly measured in patent US7611715B2, “Agaricus extract for preventing the induction or metastasis of cancer” (SSI Co., Ltd., priority 2002, dated 2009), which cites them from elsewhere.

The conditions of this series: calculated.

Turning to `CCOC(N)=O` [Urethane, ethyl carbamate], the safety dose (virtually safe dose, VSD) in human for liver cancer is 7.2e-05 mg/kg body weight.
